# Experimental data: ChEMBL document CHEMBL3885881, “DrugMatrix”
# Organism: Rattus norvegicus
# Assay: DrugMatrix - Regimen: Daily Repeat
# Format: toxicity, organism-based, Sprague-Dawley
# Design: regimen Daily Repeat, gender Male, age 6-8 weeks
# Settings: in vivo, po, 0 mg/kg, route oral GAVAGE, dose level Control, vehicle 100 % WATER; for ABSOLUTE BASOPHIL / ABSOLUTE EOSINOPHIL / ABSOLUTE LYMPHOCYTE / ABSOLUTE MONOCYTE / ABSOLUTE SEGMENTED NEUTROPHIL / BASOPHIL / EOSINOPHIL / ERYTHROCYTE COUNT / HEMATOCRIT / HEMOGLOBIN / LEUKOCYTE COUNT / LYMPHOCYTE / MEAN CORPUSCULAR HEMOGLOBIN / MEAN CORPUSCULAR VOLUME / MONOCYTE / NEUTROPHIL / NUCLEATED RED BLOOD CELLS / PLATELET COUNT: tissue Blood; for ALANINE AMINOTRANSFERASE / ALBUMIN / ALKALINE PHOSPHATASE / ASPARTATE AMINOTRANSFERASE / BLOOD UREA NITROGEN / CARBON DIOXIDE / CHLORIDE / CHOLESTEROL / CREATINE PHOSPHOKINASE / CREATININE / GLUCOSE / LACTATE DEHYDROGENASE / LIPASE / PHOSPHORUS / POTASSIUM / SODIUM / TOTAL BILIRUBIN / TOTAL PROTEIN / URIC ACID: tissue Plasma
smiles,measurement,setting,value
CCCCCCCCCCCCCCCC[n+]1ccccc1.[Br-],ABSOLUTE BASOPHIL,"72 h, time 3 day",0 CELLS/uL
same,ABSOLUTE EOSINOPHIL,"72 h, time 3 day",58.83 CELLS/uL
same,ABSOLUTE LYMPHOCYTE,"72 h, time 3 day",11823.5 CELLS/uL
same,ABSOLUTE MONOCYTE,"72 h, time 3 day",169 CELLS/uL
same,ABSOLUTE SEGMENTED NEUTROPHIL,"72 h, time 3 day",815.33 CELLS/uL
same,BASOPHIL,"72 h, time 3 day",0%
same,EOSINOPHIL,"72 h, time 3 day",0.5%
same,ERYTHROCYTE COUNT,"72 h, time 3 day",5.52 x10E6/uL
same,HEMATOCRIT,"72 h, time 3 day",35.77%
same,HEMOGLOBIN,"72 h, time 3 day",14.28 G/DL
same,LEUKOCYTE COUNT,"72 h, time 3 day",12.87 x10E3/uL
same,LYMPHOCYTE,"72 h, time 3 day",91.67%
same,MEAN CORPUSCULAR HEMOGLOBIN,"72 h, time 3 day",25.92 pg
same,MEAN CORPUSCULAR VOLUME,"72 h, time 3 day",64.85 fL
same,MONOCYTE,"72 h, time 3 day",1.33%
same,NEUTROPHIL,"72 h, time 3 day",6.5%
same,NUCLEATED RED BLOOD CELLS,"72 h, time 3 day",0 /100WBC
same,PLATELET COUNT,"72 h, time 3 day",1246.17 x10E3/uL
same,ALANINE AMINOTRANSFERASE,"72 h, time 3 day",66 u/L
same,ALBUMIN,"72 h, time 3 day",4.25 G/DL
same,ALKALINE PHOSPHATASE,"72 h, time 3 day",416 u/L
same,ASPARTATE AMINOTRANSFERASE,"72 h, time 3 day",106.17 u/L
same,BLOOD UREA NITROGEN,"72 h, time 3 day",12.67 mg/dL
same,CARBON DIOXIDE,"72 h, time 3 day",31.83 mmol/L
same,CHLORIDE,"72 h, time 3 day",102.5 MEQ/L
same,CHOLESTEROL,"72 h, time 3 day",69 mg/dL
same,CREATINE PHOSPHOKINASE,"72 h, time 3 day",601.83 u/L
same,CREATININE,"72 h, time 3 day",0.18 mg/dL
same,GLUCOSE,"72 h, time 3 day",154.5 mg/dL
same,LACTATE DEHYDROGENASE,"72 h, time 3 day",301.83 u/L
same,LIPASE,"72 h, time 3 day",11.17 u/L
same,PHOSPHORUS,"72 h, time 3 day",12.08 mg/dL
same,POTASSIUM,"72 h, time 3 day",6.12 MEQ/L
same,SODIUM,"72 h, time 3 day",145.2 MEQ/L
same,TOTAL BILIRUBIN,"72 h, time 3 day",0.17 mg/dL
same,TOTAL PROTEIN,"72 h, time 3 day",6.1 G/DL
same,URIC ACID,"72 h, time 3 day",1.57 mg/dL
same,ABSOLUTE BASOPHIL,"120 h, time 5 day",0 CELLS/uL
same,ABSOLUTE EOSINOPHIL,"120 h, time 5 day",19.33 CELLS/uL
same,ABSOLUTE LYMPHOCYTE,"120 h, time 5 day",12577.83 CELLS/uL
same,ABSOLUTE MONOCYTE,"120 h, time 5 day",106.33 CELLS/uL
same,ABSOLUTE SEGMENTED NEUTROPHIL,"120 h, time 5 day",896.5 CELLS/uL
same,BASOPHIL,"120 h, time 5 day",0%
same,EOSINOPHIL,"120 h, time 5 day",0.17%
same,ERYTHROCYTE COUNT,"120 h, time 5 day",5.84 x10E6/uL
same,HEMATOCRIT,"120 h, time 5 day",36.88%
same,HEMOGLOBIN,"120 h, time 5 day",14.48 G/DL
same,LEUKOCYTE COUNT,"120 h, time 5 day",13.6 x10E3/uL
same,LYMPHOCYTE,"120 h, time 5 day",92.17%
same,MEAN CORPUSCULAR HEMOGLOBIN,"120 h, time 5 day",24.85 pg
same,MEAN CORPUSCULAR VOLUME,"120 h, time 5 day",63.23 fL
same,MONOCYTE,"120 h, time 5 day",0.83%
same,NEUTROPHIL,"120 h, time 5 day",6.83%
same,NUCLEATED RED BLOOD CELLS,"120 h, time 5 day",0 /100WBC
same,PLATELET COUNT,"120 h, time 5 day",1223.5 x10E3/uL
same,ALANINE AMINOTRANSFERASE,"120 h, time 5 day",55.33 u/L
same,ALBUMIN,"120 h, time 5 day",4.08 G/DL
same,ALKALINE PHOSPHATASE,"120 h, time 5 day",355.5 u/L
same,ASPARTATE AMINOTRANSFERASE,"120 h, time 5 day",87.67 u/L
same,BLOOD UREA NITROGEN,"120 h, time 5 day",15.33 mg/dL
same,CARBON DIOXIDE,"120 h, time 5 day",33.83 mmol/L
same,CHLORIDE,"120 h, time 5 day",99.67 MEQ/L
same,CHOLESTEROL,"120 h, time 5 day",72.17 mg/dL
same,CREATINE PHOSPHOKINASE,"120 h, time 5 day",268.33 u/L
same,CREATININE,"120 h, time 5 day",0.15 mg/dL
same,GLUCOSE,"120 h, time 5 day",152.5 mg/dL
same,LACTATE DEHYDROGENASE,"120 h, time 5 day",212.67 u/L
same,LIPASE,"120 h, time 5 day",10.83 u/L
same,PHOSPHORUS,"120 h, time 5 day",11.65 mg/dL
same,POTASSIUM,"120 h, time 5 day",6.73 MEQ/L
same,SODIUM,"120 h, time 5 day",142.43 MEQ/L
same,TOTAL BILIRUBIN,"120 h, time 5 day",0.23 mg/dL
same,TOTAL PROTEIN,"120 h, time 5 day",6.07 G/DL
same,URIC ACID,"120 h, time 5 day",1.7 mg/dL
